In this assay the target is CB1 receptor (Homo sapiens, UniProt P21554). Nature of the assay: CB1 cAMP Antagonist Assay (LANCE Ultra cAMP kit). In kind it is cell-based. The settings on record: Flp-In CHO cells stably expressing the CB1 receptor; forskolin and CP55940 agonist at EC90; cAMP FRET readout. (In general: Time-resolved FRET reads energy transfer from a long-lived donor to a nearby acceptor.)
Chain of CB1 receptor (P21554 whole entry): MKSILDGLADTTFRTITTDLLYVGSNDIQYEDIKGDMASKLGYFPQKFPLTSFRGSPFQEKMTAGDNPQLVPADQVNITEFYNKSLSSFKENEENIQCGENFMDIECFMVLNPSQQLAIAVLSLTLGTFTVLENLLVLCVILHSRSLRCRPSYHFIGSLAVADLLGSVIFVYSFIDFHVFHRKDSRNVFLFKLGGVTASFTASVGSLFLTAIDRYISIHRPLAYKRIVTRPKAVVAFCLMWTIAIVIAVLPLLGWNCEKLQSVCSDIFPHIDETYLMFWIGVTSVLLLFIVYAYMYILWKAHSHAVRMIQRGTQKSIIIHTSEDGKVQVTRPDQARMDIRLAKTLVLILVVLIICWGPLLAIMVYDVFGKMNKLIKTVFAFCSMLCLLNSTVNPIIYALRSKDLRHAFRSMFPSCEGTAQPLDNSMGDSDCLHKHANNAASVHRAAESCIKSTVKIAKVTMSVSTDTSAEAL
A word on the IC50: it is the point on the concentration scale where inhibition reaches its midpoint. Read a high IC50 as a need for much substance. In turn, `C[C@H](C(=O)NCCO)n1c(N2C[C@H](c3ccccc3)C(c3ccc(Cl)cc3)=N2)nn(Cc2ccc(Cl)cc2)c1=O` [Compound 190, (2R)-2-[3-[(4S)-3-(4-chlorophenyl)-4-phenyl-4,5-dihydropyrazol-1-yl]-1-[(4-chlorophenyl)methyl]-5-oxo-1,2,4-triazol-4-yl]-N-(2-hydroxyethyl)propanamide] yielded a half-inhibitory concentration (IC50) of less than 100 nM.
Consider `C[C@H](C(=O)NCCO)n1c(N2C[C@@H](c3ccccc3)C(c3ccc(Cl)cc3)=N2)nn(Cc2ccc(Cl)cc2)c1=O` [Compound 191, (2R)-2-[3-[(4R)-3-(4-chlorophenyl)-4-phenyl-4,5-dihydropyrazol-1-yl]-1-[(4-chlorophenyl)methyl]-5-oxo-1,2,4-triazol-4-yl]-N-(2-hydroxyethyl)propanamide], for which the IC50 was in the range of 100 to 1000 nM.
Then `Cn1c(N2CC(c3ccccc3)C(c3ccc(Cl)cc3)=N2)nn(Cc2ccc(C(N)=O)cc2)c1=O` (stereo not shown) [Compound 192, 4-([3-[3-(4-chlorophenyl)-4-phenyl-4,5-dihydropyrazol-1-yl]-4-methyl-5-oxo-1,2,4-triazol-1-yl]methyl)benzamide], with 100 to 1000 nM.
With `Cn1nc(N2CC(c3ccccc3)C(c3ccc(Cl)cc3)=N2)n(Cc2ccccc2)c1=O` (stereo not shown) [Compound 193, 4-benzyl-5-[3-(4-chlorophenyl)-4-phenyl-4,5-dihydropyrazol-1-yl]-2-methyl-1,2,4-triazol-3-one], the half-maximal inhibitory concentration (IC50) was 100 to 1000 nM.
For `COc1ccc(Cn2nc(N3CC(c4ccccc4)C(c4ccc(Cl)cc4)=N3)n([C@@H](C)C(N)=O)c2=O)cc1OC` (stereo partly drawn) [Compound 194, (2S)-2-[3-[3-(4-chlorophenyl)-4-phenyl-4,5-dihydropyrazol-1-yl]-1-[(3,4-dimethoxyphenyl)methyl]-5-oxo-1,2,4-triazol-4-yl]propanamide] the value was 100 to 1000 nM; for `Cn1c(N2CC(c3ccccc3)C(c3ccc(Cl)cc3)=N2)nn(CCc2ccc(C(=O)O)cc2)c1=O` (stereo not shown) [Compound 195], more than 5000 nM; for `Cc1ncc(Cn2nc(N3CC(c4ccccc4)C(c4ccc(Cl)cc4)=N3)n(C)c2=O)cn1` (stereo not shown) [Compound 196], 100 to 1000 nM.
Then `COc1ccc(Cn2nc(N3CC(c4ccccc4)C(c4ccc(Cl)cc4)=N3)n([C@H](C)C(N)=O)c2=O)cc1OC` (stereo partly drawn) [Compound 197, (2R)-2-[3-[3-(4-chlorophenyl)-4-phenyl-4,5-dihydropyrazol-1-yl]-1-[(3,4-dimethoxyphenyl)methyl]-5-oxo-1,2,4-triazol-4-yl]propanamide], with 100 to 1000 nM.
Then `C[C@H](C(N)=O)n1c(N2C[C@@H](c3ccccc3)C(c3ccc(Cl)cc3)=N2)n[nH]c1=O` [Compound 199], with more than 5000 nM.
`Cn1c(N2C[C@H](c3ccccc3)C(c3ccc(Cl)cc3)=N2)nn(CCc2ccc(C(=O)NCCO)cc2)c1=O` [Compound 200] gave an IC50 of 100 to 1000 nM.
Molecule `C[C@@H](C(N)=O)n1c(N2C[C@@H](c3ccccc3)C(c3ccc(Cl)cc3)=N2)nn(Cc2ccc(Cl)cn2)c1=O` [Compound 201] yielded an IC50 of 100 to 1000 nM.
`Cn1c(N2C[C@H](c3ccccc3)C(c3ccc(Cl)cc3)=N2)nn(CCc2ccc(C(N)=O)cc2)c1=O` [Compound 202, 4-(2-[3-[(4S)-3-(4-chlorophenyl)-4-phenyl-4,5-dihydropyrazol-1-yl]-4-methyl-5-oxo-1,2,4-triazol-1-yl]ethyl)benzamide]: the half-inhibitory concentration (IC50) lay within 100 to 1000 nM.
Then `C[C@@H](C(N)=O)n1c(N2C[C@H](c3ccccc3)C(c3ccc(Cl)cc3)=N2)n[nH]c1=O` [Compound 203, (2S)-2-[3-[(4S)-3-(4-chlorophenyl)-4-phenyl-4,5-dihydropyrazol-1-yl]-5-oxo-1H-1,2,4-triazol-4-yl]propanamide], with more than 5000 nM; and `C[C@H](C(N)=O)n1c(N2C[C@H](c3ccccc3)C(c3ccc(Cl)cc3)=N2)nn(Cc2ccc(Cl)cn2)c1=O` [Compound 205], with less than 100 nM.
`C[C@H](C(N)=O)n1c(N2C[C@H](c3ccccc3)C(c3ccc(Cl)cc3)=N2)n[nH]c1=O` [Compound 206] came in with a half-maximal inhibitory concentration (IC50) of more than 5000 nM.
Then `C[C@@H](C(N)=O)n1c(N2C[C@H](c3ccccc3)C(c3ccc(Cl)cc3)=N2)nn(Cc2ccc(Cl)cn2)c1=O` [Compound 207], with less than 100 nM; and `O=c1[nH]nc(N2C[C@@H](c3ccccc3)C(c3ccc(Cl)cc3)=N2)[nH]1` [Compound 208, 5-[(4R)-3-(4-chlorophenyl)-4-phenyl-4,5-dihydropyrazol-1-yl]-2,4-dihydro-1,2,4-triazol-3-one], with more than 5000 nM; and `C[C@@H](C(N)=O)n1c(N2C[C@@H](c3ccccc3)C(c3ccc(Cl)cc3)=N2)n[nH]c1=O` [Compound 209, (2S)-2-[3-[(4R)-3-(4-chlorophenyl)-4-phenyl-4,5-dihydropyrazol-1-yl]-5-oxo-1H-1,2,4-triazol-4-yl]propanamide], with more than 5000 nM.
For `Cn1c(N2C[C@@H](c3ccccc3)C(c3ccc(Cl)cc3)=N2)nn(CCc2ccc(C(=O)NCCO)cc2)c1=O` [Compound 210] the value was more than 5000 nM.
The molecule `O=c1[nH]nc(N2C[C@H](c3ccccc3)C(c3ccc(Cl)cc3)=N2)[nH]1` [Compound 211, 5-[(4S)-3-(4-chlorophenyl)-4-phenyl-4,5-dihydropyrazol-1-yl]-2,4-dihydro-1,2,4-triazol-3-one] gave an IC50 of more than 5000 nM.
Then `Cn1c(N2C[C@@H](c3ccccc3)C(c3ccc(Cl)cc3)=N2)nn(CCc2ccc(C(N)=O)cc2)c1=O` [Compound 212], with more than 5000 nM; and `C[C@H](C(N)=O)n1c(N2C[C@@H](c3ccccc3)C(c3ccc(Cl)cc3)=N2)nn(Cc2ccc(Cl)cn2)c1=O` [Compound 213], with more than 5000 nM.

Source of the values: patent US20230192657A1, “1,2,4-TRIAZOLINONE CB1 INHIBITORS” (Goldfinch Bio, Inc., priority 2020, published 2023).
